The values below come from US20080311103A1, “Anti-Inflammatory Peptides and Methods of Use Thereof” (YEDA RESEARCH AND DEVELOPMENT CO. LTD. at THE WEIZMANN …, priority 2004, published 2008).

Like-named read-outs stand apart in the source and are kept apart here. Ends that are not written are not given here.

The test system of data set [1] is mice sensitized with oxazolone. Format: in vivo, mouse. To be noted: ear measured 24 hours after oxazolone challenge, BALB/c mice. On the procedure:
Groups of 5 female inbred BALB/c mice (The Jackson Laboratory, Bar Harbor, Me.) were sensitized on the shaved abdominal skin with 2% oxazolone (100 μl) dissolved in acetone/olive oil [4:1 (vol/vol)] applied topically. Delayed type hypersensitivity (DTH) was elicited 5 days later by challenging the mice with 0.5% oxazolone in acetone/olive oil (10 μl given topically to each side of the ear). A constant area of the ear was measured immediately before and 24 hours after the challenge using a Mitutoyo engineer's micrometer. The percent inhibition of DTH is calculated as follows:
% Inhibition=[1-{(treated−negative control)/(positive control−negative control)}]×100.
The positive control is the DTH reaction to oxazolone elicited in sensitized mice without treatment. The negative control is the background swelling produced by the oxazolone antigen in naïve non-sensitized mice.
Peptides Nos. 1-5 were given to the mice by mini perfusion pumps (alzet osmotic pump model 2001), which contained the indicated peptide (40 μg; 200 μl). The pumps were implanted under the mouse skin one day before oxazolone sensitization and they released the peptide in a rate of 1 μl per hour (0.2 μg/hour) for 7 days.
Peptides Nos. 6-10 were given to the mice by subcutaneously injection (1 μg or 10 μg per mouse), every day, starting at one day before oxazolone sensitization and ending at day 5 post DTH initiation.

For data set [2], the system named is anti-CD3 antibody induced TNFα secretion from T cells. The data set can be described thus: TNFα secretion by anti-CD3 activated T cells. Format: cell-based, human. As to conditions: peptide 100 ng/ml; 24 hours; ELISA; FIG. 7A. On the procedure: (§1) Human T cells were purified and maintained in culture (RPMI containing 10% FCS, 1% Pyruvate, 1% glutamine, 1% antibiotics, 7.5% CO2, humidified atmosphere) for 15 hr before they were transferred to RPMI and activated (2 hr, 37° C.) with the indicated concentrations of the peptides. The cells were then plated (1.5×10^6 cells/0.5 ml/well) in 24 wells plates (non-tissue culture grade) precoated with anti-CD3 mAb in order to stimulate the cells to secrete cytokines. After 24 hours, the supernatants were collected and their cytokine content (TNFα and IFNγ) was determined by ELISA using anti-IFNγ and anti TNFα mAb (Pharmingen; San Diego, Calif.) according to the manufacturer's instructions.
Background: An ELISA detects its analyte on a solid surface through an enzyme-linked reagent.

For data set [3], the system named is anti-CD3 antibody induced IFNγ secretion from T cells. The experiment in a line: IFNγ secretion by anti-CD3 activated T cells. Also on record: concentration or dose not given beside the values. Type of data set: cell-based, human. To be noted: 24 hours; ELISA; FIG. 7B. On the procedure: as §1
A short description of data set [4]: Stability to serum proteases (HPLC). Format: in vitro ADME, mouse. As to the method: To test the stability of peptide No. 5 to blood proteases, 100 μl of a 1 mg/ml solution of the peptide were incubated at 37° C. with 40 μl of mouse serum. Samples withdrawn after 0, 2, 4 or 24 hours were precipitated with 200 μl of methanol and centrifuged for 1 min at 10,000×g. The crude solution was analyzed by HPLC equipped with a 220 nm detector. The crude solution was diluted in 0.1% trifluoroacetic acid (TFA), applied on a RP-18^e column (Chromolith) (MERCK, Darmstadt, Germany), and the HPLC conditions were as follows: mobile phase A, TFA (0.1%) in water; mobile phase B: TFA (0.1%) in acetonitrile (75%). The flow rate was 3 ml/min and the gradient was 0 to 100% B for the first 10 min, 100% B for additional 5 min, and for the last 5 min the gradient was 100% B to 0.

For the next data set, the system named is T cells. The experiment in a line: Chemotaxis assay: T cell migration toward SDF-1α. Type of data set: cell-based. As to conditions: SDF-1α 250 ng/ml, 3 hr. As to the method:
The migration of ^51-[Cr]-labeled T cells was examined in […] Transwell chemotaxis apparatus (6.5-mm diameter; Corning, N.Y.), consisting of two compartments separated by polycarbonate filters (5 μm pore size) pretreated (1 hr, 37° C.) with FN (25 μg/ml). ^51-[Cr]-labeled T cells (2×10^5 in 100 μl of RPMI containing 0.1% BSA and antibiotics), which were pre-incubated with the indicated concentrations of peptides (30 min, 37° C.), were added to the upper chambers. The bottom chambers contained 0.6 ml of the same media, with or without human Stromal cell-Derived Factor-1α (SDF-1α; 250 ng/ml). After incubation at 37° C. for 3 hr (7.5% CO2-humidified atmosphere), cells that had transmigrated into the lower wells were collected, centrifuged, and lysed (in 100 μl of distilled water containing 1 M NaOH and 0.1% Triton X-100), and the radioactivity in the resulting supernatants was determined with a γ-counter. The percentage (±SD) of cell migration was calculated as the radioactivity counts in the lysates of the lower chambers (representative of the migrating cells) divided by the total counts (representative of 2×10^5 cells).

A further data set deals with Jurkat and THP-1 cells. The experiment in a line: TNFα secretion by PMA/PHA induced Jurkat and THP-1 cells. Format: cell-based, human. To be noted: 48 hours, ELISA. As to the method: Jurkat cells human T cell lymphoma line) (2×10^6 cells/ml) cultured in RPMI-1640 supplemented with 10% FCS were activated with PMA (50 ng/ml) and phytohaemagglutinin PHA (4 µg/ml) for 6 hours at 37° C. (7.5% CO2-humidified atmosphere). Thereafter, the cells were washed, plated on 24-well plates (10^6 cells/well in 0.5 ml), and incubated (1 hour at 37° C., 7.5% CO2-humidified atmosphere) with the indicated concentrations of peptides 1-5. Following the incubation, THP-1 cells (human monocytic cell line derived from a patient with acute monocytic leukaemia; 1.25×10^5 cells/0.5 ml/well) were added to the wells. After 48 hours, the supernatants were collected and their TNF[…] content was determined by ELISA using anti TNF[…] mAb (Pharmingen; San Diego, Calif.) according to the manufacturer's instructions.

The next data set concerns NF-κB. The experiment in a line: Nuclear translocation of NF-κB in T cells (Western blot). Format: cell-based. To be noted: peptide 100 ng/ml for 2 hours, then anti-CD3 mAb 24 hr; human T cells. The source says: To address the modulatory role of the wound fluid peptides on the signal transduction cascade leading to regulation of T-cell secretion of TNF-α(and IFN-γ, the nuclear translocation of NF-κB was detected by probing nuclear and cytoplasmic T-cell extracts using mAb specific for the p65 subunit of NF-κB. The nuclear protein Lamin B was used as continuatively expressed control protein for the quantification of protein amounts.
Human T cells. T cells were purified from the peripheral blood of healthy human donors (Blood Bank; Tel-Hashomer, Israel). The whole blood was incubated (20 min, 22° C.) with RosetteSep™ human T-cell enrichment cocktail (StemCell Technologies, Vancouver, BC, Canada). The remaining unsedimented cells were then loaded onto Lymphocyte Separation Medium (ICN Biomedicals; Belgium), isolated by density centrifugation, and washed with PBS. The purified cells (>95% CD3^+ T cells) so obtained were cultured in RPMI containing antibiotics and 10% heat-inactivated FCS. Western blot analysis of T-cell nuclear extracts. Purified T cells (5×10^6) were preincubated with the peptides (100 ng/ml) for 2 hours (37° C. in a 7% CO2, humidified atmosphere). The cells were then replated in 24-well plates pre-coated with anti-CD3 mAb for 24 hr (37° C. in a 7% CO2, humidified atmosphere). T cells were lysed in 10 mM HEPES, 1.5 mM MgCl2, 1 mM dithiothreitol (DTT), 1 mM PMSF, 0.5% Nonidet P-40. The lysates were incubated on ice for 10 min and centrifuged at 2000 rpm for 10 min at 4° C. The supernatants (cytoplasmic extracts) were transferred and the pellet (nuclei) was suspended in buffer containing 30 mM HEPES, 450 mM NaCl, 25% Glycerol, 0.5 mM EDTA, 6 mM DTT, 12 mM MgCl2 1 mM PMSF, 10 μg/ml leupeptin, 10 μg/ml pepstatin, 1% phosphatase inhibitor cocktail, and the suspension was incubated on ice for 30 min. The lysates were cleared by centrifugation (30 min, 14×10^3 rpm, 4° C.), and the resulting supernatants analyzed for protein content. […]
Background: Immunoblotting shows a protein as a band on a membrane.

Setting [5] is: FIG. 2, peptides subcutaneously 1 μg or 10 μg per mouse every day.
The mark [6] stands for this setting: FIG. 1, peptides by implanted osmotic pump, 0.2 μg/hour for 7 days.

As for “DHSKNPVGV [compound 8, residues 320-328 of ADAM 8; identified in wound fluids, then synthesized]”, in data set [1] (setting [5]), the “inhibition of DTH response” value came to 60%. In addition, the “inhibition of anti-CD3 antibody induced TNFα secretion from T cells” value in data set [2] is reported as 30%. The “inhibition of anti-CD3 antibody induced IFNγ secretion from T cells” value in data set [3] is recorded as 15%.

For “ALTDMPQM [compound 7, residues 250-257 of Fibrinogen Aα; identified in wound fluids, then synthesized]”, the “inhibition of DTH response” value in data set [1] (setting [5]) is “hardly inhibited”. Further, in data set [2], the “inhibition of anti-CD3 antibody induced TNFα secretion from T cells” value is 30%. The “inhibition of anti-CD3 antibody induced IFNγ secretion from T cells” value in data set [3] was determined as 30%.

With “NPDESSKPNMI [peptide No. 5, NPDESSKPNMI]”, the “% Area (HPLC peak of peptide)” value is on record as 74.23% in data set [4] (Test 1, 0 hours incubation with mouse serum); 75.08% in data set [4] (Test 1, 2 hours incubation at 37° C. with mouse serum); 68.94% in data set [4] (Test 1, 4 hours incubation at 37° C. with mouse serum); 68.69% in data set [4] (Test 1, 24 hours incubation at 37° C. with mouse serum); 90.62% in data set [4] (Test 2, 0 hours incubation with mouse serum); 87.32% in data set [4] (Test 2, 2 hours incubation at 37° C. with mouse serum). In addition, in data set [4] (mouse serum, up to 24 hours), the “resistance to serum proteases” value is reported as “highly resistant”. Also, the metabolised at 2 h, 0.71 mg/ml in data set [4] (mouse, mouse serum, after 2 hours (test 2), read-out: peptide degraded in the presence of mouse serum) was ~3.5%. The metabolised at 4 h, 0.71 mg/ml in data set [4] (mouse, mouse serum, after 4 hours (test 1), read-out: peptide degraded in the presence of mouse serum) is 7.5%. The metabolised at 24 h, 0.71 mg/ml in data set [4] (mouse, mouse serum, after 24 hours (test 1), read-out: peptide degraded in the presence of mouse serum) turned out to be 7.5%. Moreover, the remaining at 24 h, 0.71 mg/ml in data set [4] (mouse, mouse serum, after 24 hours of exposure to serum proteases, read-out: peptide still present as an intact peptide) is > 90%.

For “NDADDST [compound 9, residues 302-308 of Cadherin 4; identified in wound fluids, then synthesized]”, the “inhibition of DTH response” value in data set [1] (setting [5]) is given as “hardly inhibited”. In addition, in data set [2], the “inhibition of anti-CD3 antibody induced TNFα secretion from T cells” value is given as ~50%. In addition, the “inhibition of anti-CD3 antibody induced IFNγ secretion from T cells” value in data set [3] was 40%.

For the substance “MIESSMN [compound 1, residues 827-833 of LRP5; identified in wound fluids, then synthesized]”, the “inhibition of DTH response” value in data set [1] (setting [6]) is “hardly inhibited”. Further, the “inhibition of T cell transmigration toward SDF-1α” value in the data set with T cells (concentration range 10-1000 ng/ml) is reported as “did not show a significant inhibition”. Moreover, the “inhibition of TNFα secretion by Jurkat and THP-1 cells” value in the data set with Jurkat and THP-1 cells (concentration range 1-1000 ng/ml) was “did not exert a significant inhibition”.

Take “NQGEESAEI [compound 10, residues 470-478 of Calcitonin receptor; identified in wound fluids, then synthesized]”: the “inhibition of DTH response” value in data set [1] (setting [5]) is listed as 30%. The “inhibition of anti-CD3 antibody induced TNFα secretion from T cells” value in data set [2] is ~70%. For the same substance, in data set [3], the “inhibition of anti-CD3 antibody induced IFNγ secretion from T cells” value came out at 75%.

With “ELERPGGNEI [compound 6, residues 260-269 of Fibrinogen Aα; identified in wound fluids, then synthesized]”, in data set [1] (setting [5]), the “inhibition of DTH response” value came out at 50%. Moreover, in data set [2], the “inhibition of anti-CD3 antibody induced TNFα secretion from T cells” value is on record as 40%. Further, in data set [3], the “inhibition of anti-CD3 antibody induced IFNγ secretion from T cells” value was found to be 40%. Besides, the “NF-κB translocation to the nucleus” value with NF-κB is “significant down-regulation”.

As to “TDYGKDLMEKV [peptide No. 4, residues 42-52 of Apo A-II; identified in wound fluids, then synthesized]”, the “inhibition of DTH response” value in data set [1] (setting [6]) is reported as “hardly inhibited”. In addition, in the data set with T cells (peptide 1000 ng/ml), the “inhibition of T cell migration toward SDF-1α” value is recorded as 30%. In addition, the “inhibition of TNFα secretion by Jurkat and THP-1 cells compared to PMA/PHA alone” value in the data set with Jurkat and THP-1 cells (peptide 1 μg/ml) is 40%. In addition, the “inhibition of anti-CD3 antibody induced TNFα secretion from T cells” value in data set [2] is recorded as ~50%. The “inhibition of anti-CD3 antibody induced IFNγ secretion from T cells” value in data set [3] is ~50%.
